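Growth conditions: 96-well plates. Treatment: test compound, 48 hours, 5 concentrations. Analysis: linear interpolation between bracketing concentrations; unreached endpoints set to highest concentration. GI50 is the concentration that inhibits growth by half.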 Activity calls are given as the source filed them. Rule as the data show it: active = GI50 up to about 1.1 µM and inactive = higher. Some results are limits rather than exact numbers.

Holding throughout (test): NCI tumour cell line growth inhibition, 48 h
For test [1], the system named is DMS-114.
Test [2] deals with DMS-273.
Test [3] has as its system LXFL 529.
Test [4] relates to RXF 631.
The test system of test [5] is SNB-78.
Test [6] deals with KM-20L2.
The subject of test [7] is XF498.
In test [8] the test system is BT-549.
Test [9] concerns MDA-N.

In the case of `CC1(C)C2C/C(=C\c3ccccc3)C(=O)C1C2` (configuration not stated), the GI50 in test [1] was 68.1 µM (inactive); in test [2], > 100 µM (inactive); in test [3], > 100 µM (inactive); in test [4], > 100 µM (inactive); in [5], > 100 µM (inactive).
With `COc1cc([C@@H]2c3cc4c(cc3[C@@H](NCc3ccccc3F)C3COC(=O)[C@@H]32)OCO4)cc(OC)c1O` (some centres not stated), the GI50 in test [1] is 3.45 µM (inactive); in test [2] it was 1.21 µM (inactive); in [6], 2.71 µM (inactive); in [3], 11.3 µM (inactive); in test [4] it was 2.18 µM (inactive); in [5] it was 25.8 µM (inactive).
For `Cc1nc2c(o1)/C(=N\c1ccccc1)c1nc(C)oc1/C2=N/c1ccccc1`, the GI50 in test [1] is 25.5 µM (inactive); in test [2], 20 µM (inactive); in test [6] it was 25.5 µM (inactive); in test [3] it was 20.8 µM (inactive); in test [5], > 100 µM (inactive); in test [7], 18 µM (inactive).
Turning to `CCOC(=O)c1ccc(/N=N/c2cc(C(=O)OCC)ccc2O)cc1`, the GI50 in [1] is > 100 µM (inactive); in [2], > 100 µM (inactive); in [6], > 100 µM (inactive); in [3], > 100 µM (inactive); in [7], 2.13 µM (inactive).
On to `c1cc2nnsc2s1`, for which the GI50 in test [2] was 70.6 µM (inactive); in test [6] it was > 100 µM (inactive); in test [3], 90.8 µM (inactive); in [5], > 100 µM (inactive); in test [7] it was > 100 µM (inactive).
As to `O=C1c2ccccc2C(=O)c2[nH]cnc21`, the GI50 is 31.5 µM (inactive) in [1], 46.8 µM (inactive) in test [2], 41.3 µM (inactive) in test [5] and 32.7 µM (inactive) in test [7].
For the compound `CC(=O)CC(=O)Nc1ccccc1[N+](=O)[O-]`, the GI50 in [1], in test [2], in [6], in test [3], in [5] and in test [7] was > 100 µM (inactive) each time.
Turning to `NCCN1C(=O)C2C3c4ccccc4C(c4ccccc43)C2C1=O` (configuration not stated), the GI50 in test [1], in test [2], in [6], in test [3] and in test [5] was > 100 µM (inactive) each time.
In the case of `Cc1cc(-c2ccccc2)nc(Nc2nc3ccccc3o2)n1`, the GI50 in [1], in test [6], in test [3], in test [5] and in test [7] was > 100 µM (inactive) throughout.
As for `Cc1cn(C2CC(N)C(C(=O)O)O2)c(=O)[nH]c1=O` (configuration not stated), the GI50 in test [8] and in test [9] was > 100 µM (inactive) in each case.
Turning to `CCOC(=O)C(C(N)=O)C1=Nc2cc([N+](=O)[O-])ccc2N/C1=C\C(=O)c1ccccc1` (configuration not stated), the GI50 in test [8] is 21.7 µM (inactive); in test [9], 18.7 µM (inactive).
For `COc1ccc(OC)c2c1C=CC(Br)=CC2`, in that order: 0.303 µM (active) and 0.229 µM (active).
Taken in the same sequence, the figures for `O=[N+]([O-])C1=Cc2c(O)ccc(O)c2C2c3ccccc3NC12` (configuration not stated) were 12.3 µM (inactive) and 18.3 µM (inactive).
Regarding `C/C(=N\NC(=S)N1CCN(c2ccccn2)CC1)c1ncccn1`, the GI50 is 4.67 µM (inactive) in test [8]; 0.00233 µM (active) in [1]; 0.0114 µM (active) in test [2]; 0.00984 µM (active) in [6]; 0.001 µM (active) in [3]; 6.93 µM (inactive) in [9]. The GI50 in test [5] is 6.05 µM (inactive); in test [7], 0.0247 µM (active).
`COC(=O)c1cc(C)n2c1CS[C@@H]2c1ccccc1`: the GI50 in test [8] was 29.2 µM (inactive); in test [9], 21.1 µM (inactive).
For `CC(C)CC(C#CCCOC(=O)c1ccccc1)OC(=O)c1ccccc1` (configuration not stated), in that order: > 10 µM (inactive) and > 10 µM (inactive).
Regarding `CS(=O)(=O)c1nc(N)nc2nc[nH]c12`, the GI50 in test [1], in test [2], in [6], in test [3], in test [5] and in test [7] was > 100 µM (inactive) each time.
Regarding `CCOC(=O)N1CCN(Cc2cc(=O)n3ccc(C)cc3n2)CC1`, the GI50 in test [8] and in test [9] was > 100 µM (inactive) each time.
In the case of `CCN(CC)c1c(C(C)(C)C)c(=O)n2ccsc2c1OC(C)=O`, the GI50 in [8] was 15.5 µM (inactive); in test [9], 18.6 µM (inactive).
In the case of `CCOC(=O)C1Cc2[nH]c3ccccc3c2C(C)C1C` (configuration not stated), the GI50 in test [1] is 22.3 µM (inactive); in test [2], 15.1 µM (inactive); in test [6], 16.8 µM (inactive); in [3], 19.9 µM (inactive); in [5], 19.4 µM (inactive); in test [7], 16.7 µM (inactive).
As for `CCOC(=O)CSc1nc(N)c2c(-c3ccccc3)c3c(nc2n1)CCCC3`, the GI50 in [8] and in [9] was > 100 µM (inactive) in each case.
For the compound `COc1cc(C2c3cc4c(cc3[C@@H](NCCN3CCCCC3)C3COC(=O)[C@H]23)OCO4)cc(OC)c1O` (some centres not stated), the GI50 is 0.123 µM (active) in test [2], 1.53 µM (inactive) in [6], 2 µM (inactive) in test [3] and 2.7 µM (inactive) in test [5].
Consider `C[C@@H]1C[C@](O)([C@@H](C)Cl)C(=O)O[C@@H]2CCN3CC=C(COC(=O)[C@]1(C)O)[C@H]23`, for which the GI50 in test [8] and in test [9] was > 100 µM (inactive) each time.
Consider `CC1C2(C)OC(=N)C(C#N)(C(C)O2)C1(C#N)C#N` (configuration not stated), for which the results for the GI50 in test [8] and in test [9] were 31.6 µM (inactive) and 18.6 µM (inactive), respectively.
In the case of `COC(=O)c1ccc2c(c1)S/C(=C/c1ccc3ccc4cccc5ccc1c3c45)S2`, the GI50 in test [8] was 35.8 µM (inactive); in test [9], 52.5 µM (inactive).
As to `O=C1N[C@@H]([C@H]2CC[C@H](Cl)CN2)C(=O)N[C@H]1[C@H]1CC[C@H](Cl)CN1`, the GI50 in [8] was 1.63 µM (inactive); in test [1] it was 0.269 µM (active); in test [2], 0.205 µM (active); in test [6], 4.93 µM (inactive); in test [9], 0.555 µM (active); in test [5] it was 2.94 µM (inactive). The GI50 in test [7] was 0.184 µM (active).
For the compound `COc1ccc(/N=C(/[N-]n2c(=O)c(C)nn(C)c2=S)N(c2ccc(OC)cc2)c2n[n+]3c(=O)c(C)nn(C)c3s2)cc1`, the GI50 in test [1], in [2], in test [6], in [3] and in test [5] was > 100 µM (inactive) each time.
On to `O=C1C[C@@H]2[C@@H](c3ccccc3)[C@@H]3C(=O)c4ccccc4NC(=O)[C@H]3[C@]2(O)c2ccccc2N1`, for which the GI50 in test [1], in test [2], in test [6], in [3], in test [5] and in test [7] was > 100 µM (inactive) in each case.
Turning to `C[C@H](CCC(=O)NCCS(=O)(=O)O)[C@H]1CC[C@H]2[C@@H]3[C@H](O)C[C@@H]4C[C@H](O)CC[C@]4(C)[C@H]3CC[C@]12C`, the GI50 in test [8] and in [9] was > 100 µM (inactive) in each case.
In the case of `COc1cccc(-c2ccc3c4c2O[C@H]2c5[nH]c6ccccc6c5C[C@@]5(O)[C@@H](C3)N(CC3CC3)CC[C@]425)c1`, the figures for the GI50 in [8] and in test [9] were 4.83 µM (inactive) and 1.85 µM (inactive), respectively.
Consider `CC1CCc2c(sc3ncnc(N/N=C/c4ccc(Cl)c(Cl)c4)c23)C1` (configuration not stated), for which the results for the GI50 in test [1], in test [2] and in test [6] were 3.79 µM (inactive), 7.98 µM (inactive) and 4.69 µM (inactive), respectively.
For the compound `C/C(Cl)=N/OC(=O)Nc1ccc(S(N)(=O)=O)c(C)c1`, the GI50 in test [8] is 12.3 µM (inactive); in [9], 11.7 µM (inactive).
Taken in the same sequence, the figures for `O=c1c2ccc(Cl)cc2oc2c(CNc3ccc(S(=O)(=O)Nc4nccs4)cc3)cccc12` were > 100 µM (inactive) and > 100 µM (inactive).
Taken in the same sequence, the figures for `Cc1ccc(/C=C2\CCCC(CN3CCCCC3)C2=O)cc1` (configuration not stated) were 2.29 µM (inactive) and 2.77 µM (inactive).
Turning to `[N-]=[N+]=NC(CCl)c1cn([C@H]2C[C@H](O)[C@@H](CO)O2)c(=O)[nH]c1=O` (some centres not stated), the GI50 in [1], in test [2], in test [6], in test [3] and in [5] was > 100 µM (inactive) each time.
For the compound `CO[C@]12CCC(=O)N1C=Cc1c2[nH]c2ccccc12`, the GI50 in [1], in test [3] and in test [5] was > 100 µM (inactive) each time.
As for `CCN(CC)CCOc1ccc(/C=C(\C#N)c2ccc(OCCN(CC)CC)cc2)cc1`, the GI50 in test [1] is 10.8 µM (inactive); in [2], 13.6 µM (inactive); in test [6], 1.56 µM (inactive); in test [3], 16.1 µM (inactive); in test [5], 20.5 µM (inactive); in test [7], 13.4 µM (inactive).
For the compound `O=S(=O)(O)c1cccc2c(/N=N/c3c(O)ccc4ccccc34)cccc12`, the GI50 in test [8] and in test [9] was > 100 µM (inactive) throughout.
`COc1ccc(/C=C2/CCS(=O)(=O)c3ccc(C)cc3C2=O)cc1OC`: the GI50 in test [8] was 9.27 µM (inactive); in test [9], 11.9 µM (inactive).
Take `CC(=O)OCCOCNC(=S)N/N=C/c1ccc(Br)s1`: the GI50 was 33.3 µM (inactive) in [1]; > 87.7 µM (inactive) in test [2]; > 100 µM (inactive) in test [6]; > 70.3 µM (inactive) in test [3]; > 100 µM (inactive) in test [5]; > 100 µM (inactive) in [7].
For `O=C(c1ccccc1)N1CCC(Nc2cccnc2)O1` (configuration not stated), the GI50 in test [8] and in test [9] was > 100 µM (inactive) each time.
In the case of `CS(=O)(=O)N(CCC#N)c1ccc(/C=N/NC(=O)CC(=O)Nc2cccc(Cl)c2)cc1`, the GI50 in test [1], in test [2], in test [6], in test [3] and in [5] was > 100 µM (inactive) throughout.

(Values after ChEMBL document CHEMBL1201862, “PubChem BioAssay data set” (2004).)
